In patent US20090252703A1, “Use of alcohol co-solvents to improve pegylation reaction yields” (priority 2006, published 2009):

assay: solubility of CGRP peptides in aqueous conjugation buffer; type: physicochemical; conditions: aqueous conjugation buffers used for coupling vehicle to the peptide
Excerpt: Co-solvent mediated conjugation of vehicle to CGRP peptide antagonists.

| SMILES | solubility in aqueous buffer medium (in words) |
| --- | --- |
| CC(=O)N[C@@H](Cc1c[nH]c2ccccc12)C(=O)N[C@H](C(=O)N[C@H](C(=O)N[C@@H](Cc1cnc[nH]1)C(=O)N[C@@H](CCCNC(N)=O)C(=O)N[C@@H](CC(C)C)C(=O)N[C@@H](C)C(=O)NCC(=O)N[C@@H](CC(C)C)C(=O)N[C@@H](CC(C)C)C(=O)N[C@@H](CO)C(=O)N[C@@H](CCCNC(N)=O)C(=O)N[C@@H](CO)C(=O)NCC(=O)NCC(=O)N[C@H](C(=O)N[C@H](C(=O)N[C@@H](CCCCNC(=N)N)C(=O)N[C@@H](CCCCN)C(=O)N[C@@H](CC(N)=O)C(=O)N[C@@H](Cc1ccccc1)C(=O)N[C@H](C(=O)N1CCC[C@H]1C(=O)N[C@H](C(=O)N[C@@H](CC(=O)O)C(=O)N[C@H](C(=O)NCC(=O)N1CCC[C@H]1C(=O)N[C@@H](Cc1ccccc1)C(=O)N[C@@H](C)C(=O)N[C@@H](Cc1ccccc1)C(N)=O)C(C)C)[C@@H](C)O)C(C)C)C(C)C)C(C)C)[C@@H](C)O)C(C)C [SEQ ID NO:2] | relatively insoluble |
| CC(=O)N[C@@H](Cc1c[nH]c2ccccc12)C(=O)N[C@H](C(=O)N[C@H](C(=O)N[C@@H](Cc1cnc[nH]1)C(=O)N[C@@H](CCCNC(N)=O)C(=O)N[C@@H](CC(C)C)C(=O)N[C@@H](C)C(=O)NCC(=O)N[C@@H](CC(C)C)C(=O)N[C@@H](CC(C)C)C(=O)N[C@@H](CO)C(=O)N[C@@H](CCCNC(N)=O)C(=O)N[C@@H](CO)C(=O)NCC(=O)NCC(=O)N[C@H](C(=O)N[C@H](C(=O)N[C@@H](CCCCNC(=N)N)C(=O)N[C@@H](CCCCN)C(=O)N[C@@H](CC(N)=O)C(=O)N[C@@H](Cc1ccccc1)C(=O)N[C@H](C(=O)N1CCC[C@H]1C(=O)N[C@H](C(=O)N[C@@H](CC(=O)O)C(=O)N[C@H](C(=O)NCC(=O)N1C2CCCCC2C[C@H]1C(=O)N[C@@H](Cc1ccccc1)C(=O)N[C@@H](C)C(=O)N[C@@H](Cc1ccccc1)C(N)=O)C(C)C)[C@@H](C)O)C(C)C)C(C)C)C(C)C)[C@@H](C)O)C(C)C (stereo partly drawn) [SEQ ID NO:3] | relatively insoluble |
| CC(=O)N[C@@H](Cc1c[nH]c2ccccc12)C(=O)N[C@H](C(=O)N[C@H](C(=O)N[C@@H](Cc1cnc[nH]1)C(=O)N[C@@H](CCCN=C(N)N)C(=O)N[C@@H](CC(C)C)C(=O)N[C@@H](C)C(=O)NCC(=O)N[C@@H](CC(C)C)C(=O)N[C@@H](CC(C)C)C(=O)N[C@@H](CO)C(=O)N[C@@H](CCCN=C(N)N)C(=O)N[C@@H](CO)C(=O)NCC(=O)NCC(=O)N[C@H](C(=O)N[C@H](C(=O)N[C@@H](CCCN=C(N)N)C(=O)N[C@@H](CCCCN)C(=O)N[C@@H](CC(N)=O)C(=O)N[C@@H](Cc1ccccc1)C(=O)N[C@H](C(=O)N1CCC[C@H]1C(=O)N[C@H](C(=O)N[C@@H](CC(=O)O)C(=O)N[C@H](C(=O)NCC(=O)N1CCC[C@H]1C(=O)N[C@@H](Cc1ccccc1)C(=O)N[C@@H](C)C(=O)N[C@@H](Cc1ccccc1)C(N)=O)C(C)C)[C@@H](C)O)C(C)C)C(C)C)C(C)C)[C@@H](C)O)C(C)C [SEQ ID NO:7] | relatively soluble |
